Consider 9 molecules from ChEMBL document CHEMBL3616451, “Design and synthesis of 11α-substituted bile acid derivatives as potential anti-tuberculosis agents” (Bioorg Med Chem Lett, 2015).

For assay [1], the system named is Mycobacterium tuberculosis. The assay can be described thus: Anti-tubercular activity against rifampicin, isoniazid, ethambutol and pyrazinamide-sensitive Mycobacterium tuberculosis H37Ra ATCC 25177 assessed as growth inhibition at 30 ug/ml by XRMA method relative to control. Particulars: read-out: GI. Format: functional.
The test system of assay [2] is Mycobacterium tuberculosis. The assay can be described thus: Anti-tubercular activity against rifampicin, isoniazid, ethambutol and pyrazinamide-sensitive Mycobacterium tuberculosis H37Ra ATCC 25177 assessed as growth inhibition at 10 ug/ml by XRMA method relative to control. Format: functional. Conditions: for inhibition of growth at 10 µg/mL: read-out: GI.
Assay [3] concerns Mycobacterium tuberculosis. The experiment in a line: Anti-tubercular activity against rifampicin, isoniazid, ethambutol and pyrazinamide-sensitive Mycobacterium tuberculosis H37Ra ATCC 25177 assessed as growth inhibition at 3 ug/ml by XRMA method relative to control. Particulars: for inhibition of growth at 3 µg/mL: read-out: GI. Format: functional.
The next assay deals with Escherichia coli. The experiment in a line: Antibacterial activity against Escherichia coli […] assessed as growth inhibition at 30 ug/ml relative to control. Format: functional. Particulars: read-out: GI.
The next assay concerns Pseudomonas fluorescens. The assay can be described thus: Antibacterial activity against Pseudomonas fluorescens ATCC 13525 assessed as growth inhibition at 30 ug/ml relative to control. Format: functional.
In another assay the test system is Staphylococcus aureus. The experiment in a line: Antibacterial activity against Staphylococcus aureus ATCC 29213 assessed as growth inhibition at 30 ug/ml relative to control. Format: functional.
For the next assay, the system named is Bacillus subtilis. The experiment in a line: Antibacterial activity against Bacillus subtilis ATCC 23857 assessed as growth inhibition at 30 ug/ml relative to control. Format: functional. Particulars: read-out: GI.
The subject of assay [4] is Mycobacterium tuberculosis. The experiment in a line: Anti-tubercular activity against rifampicin, isoniazid, ethambutol and pyrazinamide-sensitive dormant phage of Mycobacterium tuberculosis H37Ra ATCC 25177 by serial dilution method. Format: functional, organism-based.
For assay [5], the system named is Mycobacterium tuberculosis. The assay can be described thus: Anti-tubercular activity against rifampicin, isoniazid, ethambutol and pyrazinamide-sensitive active phage of Mycobacterium tuberculosis H37Ra ATCC 25177 by serial dilution method. Format: functional, organism-based.
In assay [6] the test system is Mycobacterium tuberculosis. The experiment in a line: Anti-tubercular activity against rifampicin, isoniazid, ethambutol and pyrazinamide-sensitive dormant phage of Mycobacterium tuberculosis H37Ra ATCC 25177 infected in human THP1 cells by neutral red assay. Format: functional, organism-based. Conditions: H37Ra ATCC 25177, THP-1.
For assay [7], the system named is Mycobacterium tuberculosis. The experiment in a line: Anti-tubercular activity against rifampicin, isoniazid, ethambutol and pyrazinamide-sensitive active phage of Mycobacterium tuberculosis H37Ra ATCC 25177 infected in human THP1 cells by neutral red assay. Format: functional, organism-based. Conditions: H37Ra ATCC 25177, THP-1.

Molecules are shown by their SMILES. In brackets after ≈: the same amount, converted by molar mass. Activity calls are given as the source filed them. No cut-off for these calls is given here.

`COC(=O)CC[C@@H](C)[C@H]1CC[C@H]2[C@H]3[C@H]([C@H](n4cc(-c5ccccc5)nn4)C(=O)[C@]12C)[C@@]1(C)CC[C@@H](OC(C)=O)C[C@H]1C[C@H]3OC(C)=O`: the inhibition of growth at 30 µg/mL amounted to 74% in assay [1], 17.8% in the assay with Escherichia coli and 20% in the assay on Bacillus subtilis. Further, in assay [2], the inhibition of growth at 10 µg/mL amounted to 68%. In assay [3], the inhibition of growth at 3 µg/mL is 67%. In addition, the “growth inhibition (GI)” value in the assay on Pseudomonas fluorescens and in the assay with Staphylococcus aureus was “inactive” throughout.

With `COC(=O)CC[C@@H](C)[C@H]1CC[C@H]2[C@H]3[C@H]([C@H](n4cc(-c5ccc(F)cc5)nn4)C(=O)[C@]12C)[C@@]1(C)CC[C@@H](OC(C)=O)C[C@H]1C[C@H]3OC(C)=O`, the inhibition of growth at 30 µg/mL in assay [1] was found to be 79%; in the assay on Escherichia coli it was 43.8%; with Pseudomonas fluorescens (read-out: GI), 23.2%; with Bacillus subtilis, 20%. The inhibition of growth at 10 µg/mL in assay [2] worked out at 75%. The inhibition of growth at 3 µg/mL in assay [3] was found to be 71%. In addition, the “growth inhibition (GI)” value with Staphylococcus aureus was “inactive”.

On to `NNC(=O)c1ccncc1` [ISONIAZID], for which the IC50 in assay [4] amounted to 2.3 ng/mL (≈ 0.0168 µM); in assay [5], 1.9 ng/mL (≈ 0.0139 µM); in assay [6], 2.4 ng/mL (≈ 0.0175 µM); in assay [7], 2.4 ng/mL (≈ 0.0175 µM). Moreover, the IC90 in [4] is 75 ng/mL (≈ 0.547 µM); in assay [5], 74 ng/mL (≈ 0.54 µM); in [6] it was 7.8 ng/mL (≈ 0.0569 µM); in assay [7] it was 75 ng/mL (≈ 0.547 µM).

As to `COC(=O)CC[C@@H](C)[C@H]1CC[C@H]2[C@H]3[C@H]([C@H](N=[N+]=[N-])C(=O)[C@]12C)[C@@]1(C)CC[C@@H](OC(C)=O)C[C@H]1C[C@H]3OC(C)=O`, in [1], the inhibition of growth at 30 µg/mL is 12%. For the same molecule, the “growth inhibition (GI)” value in assay [2] and in assay [3] was “inactive” in each case.

Take `COC(=O)CC[C@@H](C)[C@H]1CC[C@H]2[C@@H]3[C@H](OC(C)=O)C[C@@H]4C[C@H](OC(C)=O)CC[C@]4(C)[C@H]3CC(=O)[C@]12C`: in [1], the inhibition of growth at 30 µg/mL came to 34%. The inhibition of growth at 10 µg/mL in [2] is 28%. Besides, the inhibition of growth at 3 µg/mL in assay [3] stood at 13%.

On to `CO[C@H]1/C=C/O[C@@]2(C)Oc3c(C)c(O)c4c(O)c(c(/C=N/N5CCN(C)CC5)c(O)c4c3C2=O)NC(=O)/C(C)=C\C=C\[C@H](C)[C@H](O)[C@@H](C)[C@@H](O)[C@@H](C)[C@H](OC(C)=O)[C@@H]1C` [RIFAMPIN], for which the IC50 in assay [4] stood at 1.4 ng/mL (≈ 0.0017 µM); in assay [5] it was 1.8 ng/mL (≈ 0.00219 µM); in assay [6] it was 1.8 ng/mL (≈ 0.00219 µM); in assay [7], 2.1 ng/mL (≈ 0.00255 µM). The IC90 in assay [4] stood at 43 ng/mL (≈ 0.0523 µM); in assay [5], 48 ng/mL (≈ 0.0583 µM); in [6] it was 48 ng/mL (≈ 0.0583 µM); in [7] it was 51 ng/mL (≈ 0.062 µM).

With `COC(=O)CC[C@@H](C)[C@H]1CC[C@H]2[C@H]3[C@H]([C@H](NC(=O)C4CN4)C(=O)[C@]12C)[C@@]1(C)CC[C@@H](OC(C)=O)C[C@H]1C[C@H]3OC(C)=O` (stereo not given in full), in assay [1], the inhibition of growth at 30 µg/mL was determined as 14%. For the same molecule, the inhibition of growth at 10 µg/mL in assay [2] was 10%. In [3], the “growth inhibition (GI)” value was “inactive”.

For `COC(=O)CC[C@@H](C)[C@H]1CC[C@H]2[C@H]3[C@H]([C@H](N)C(=O)[C@]12C)[C@@]1(C)CC[C@@H](OC(C)=O)C[C@H]1C[C@H]3OC(C)=O`, in [1], the inhibition of growth at 30 µg/mL was less than 1%. In addition, in assay [2], the inhibition of growth at 10 µg/mL was less than 1%. Besides, the “growth inhibition (GI)” value in assay [3] is “inactive”.

As to `C[C@H](CCC(=O)O)[C@H]1CC[C@H]2[C@@H]3[C@H](O)C[C@@H]4C[C@H](O)CC[C@]4(C)[C@H]3C[C@H](O)[C@]12C` [CHOLIC ACID], the inhibition of growth at 30 µg/mL in assay [1] came out at 53%. Moreover, the inhibition of growth at 10 µg/mL in assay [2] was 36%. Also, the “growth inhibition (GI)” value in [3] is “inactive”.

The term IC50 denotes the concentration at which inhibition is half-maximal. As a reminder, the IC90 is the point of the concentration-response curve where the effect stands at 90%. The low end stands for greater potency, the high end for weaker potency.
